In one experiment the target is T1, RORγ (Homo sapiens, UniProt P51449).
T1 construct: expressed in transfected cells; host or cells: HEK 293 cells, transiently transfected
T1 sequence (P51449 269-508 limits assumed): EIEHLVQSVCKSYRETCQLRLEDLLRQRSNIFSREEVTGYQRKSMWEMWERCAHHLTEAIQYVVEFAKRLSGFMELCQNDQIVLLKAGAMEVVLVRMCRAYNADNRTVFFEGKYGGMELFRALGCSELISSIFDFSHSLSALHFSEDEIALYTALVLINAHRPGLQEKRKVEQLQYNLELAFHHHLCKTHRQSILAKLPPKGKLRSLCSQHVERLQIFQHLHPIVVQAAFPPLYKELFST
Kind of experiment: Reporter Gene Assay (RGA): nuclear receptor transactivation assay, inhibition of RORγ transactivation of a luciferase reporter in transiently transfected HEK 293 cells. It counts as cell-based.
Settings: not given
For orientation: IC50 means the concentration that inhibits the measured activity by half. `CCc1ncnc(C2CC2)c1-c1ncc2nc(NCc3ccc(S(C)(=O)=O)cc3)c(=O)n([C@H](C)CC)c2n1` [Example 191] displayed an IC50 of 0.086 µM. The same measure, in the same setting: the result for `CC[C@H](C)n1c(=O)c(NCc2ccc(S(N)(=O)=O)cn2)nc2cnc(-c3c(OC)ncnc3C3CC3)nc21` [Example 122] reads 0.15 µM; that for `CCS(=O)(=O)c1ccc(CNc2nc3cnc(-c4c(C5CC5)ncnc4C4CC4)nc3n(C3CC3)c2=O)cc1` [Example 38], 1.1 µM; that for `CCS(=O)(=O)N1C[C@@H]2C(CNc3nc4cnc(-c5c(C)ncnc5C5CC5)nc4n([C@@H](C)C4CC4)c3=O)[C@@H]2C1` (stereo partly shown) [Example 163], 0.16 µM.

Still in this experiment, the particulars now being: read-out: RGA IC50.
Turning to `CCS(=O)(=O)c1ccc(CNc2nc3cnc(-c4c(OC)ncnc4C4CC4)nc3n(C3CC3)c2=O)cc1` [Example 43], the IC50 is 2.6 µM. On the same count and under the same terms, the result for `CC[C@H](C)n1c(=O)c(NCc2ccc(S(=O)(=O)CC)cn2)nc2cnc(-c3c(C)ncnc3C(F)(F)F)nc21` [Example 58] reads 0.42 µM; that for `CCS(=O)(=O)N1CCC(CNc2nc3cnc(-c4c(OC)ncnc4C4CC4)nc3n(C(C)C)c2=O)CC1` [Example 131], 0.205 µM. As to `CC[C@@H](C)n1c(=O)c(NCc2ccc(S(N)(=O)=O)cn2)nc2cnc(-c3c(C)ncnc3C3CC3)nc21` [Example 235], the IC50 was 0.425 µM. On the same count and under the same terms, in the case of `CCS(=O)(=O)c1ccc(CNc2nc3cnc(-c4c(C5CC5)ncnc4C4CC4)nc3n(C3CCCC3)c2=O)nc1` [Example 13] it was 0.3 µM; in that of `CCc1ncnc(C2CC2)c1-c1ncc2nc(NCc3ccc(S(=O)(=O)CC)cc3)c(=O)n([C@H]3CCOC3)c2n1` [Example 175], 0.38 µM. Same read-out and setting: the result for `CCS(=O)(=O)c1ccc(CNc2nc3cnc(-c4c(C)ncnc4C4CC4)nc3n(CC(C)(C)F)c2=O)nc1` [Example 105] reads 1.6 µM. Still for that read-out and setting: in the case of `CCS(=O)(=O)c1ccc(CNc2nc3cnc(-c4c(C5CC5)ncnc4C4CC4)nc3n([C@@H](C)C3CC3)c2=O)nc1` [Example 73] it was 0.29 µM.

On to `CCS(=O)(=O)c1ccc(CNc2nc3cnc(-c4c(C)ncnc4C4CC4)nc3n(-c3ccccc3)c2=O)nc1` [Example 48], for which the IC50 came to 3.8 µM. On the same count and under the same terms, in the case of `CCS(=O)(=O)c1ccc(CNc2nc3cnc(-c4c(OC)ncnc4C4CC4)nc3n(C3(C)CC3(F)F)c2=O)nc1` (stereo not shown) [Example 36] it was 0.88 µM.

For `CCS(=O)(=O)c1ccc(CNc2nc3cnc(-c4c(C)nc(N)nc4C4CC4)nc3n([C@@H](C)C3CC3)c2=O)nc1` [Example 217], the IC50 was 0.16 µM.

Regarding `CCS(=O)(=O)c1ccc(CNc2nc3cnc(-c4c(C)ncnc4C4CC4)nc3n([C@H]3CCC[C@H]3C#N)c2=O)nc1` [Example 111], the IC50 was determined as 0.46 µM. On the same count and under the same terms, in the case of `CCS(=O)(=O)c1cnc(CNc2nc3cnc(-c4c(OC)ncnc4C4CC4)nc3n([C@@H](C)C(F)(F)F)c2=O)nc1` [Example 187] it was 0.255 µM. On the same count and under the same terms, in the case of `CCc1ncnc(C2CC2)c1-c1ncc2nc(NCc3ccc(S(=O)(=O)CC)cn3)c(=O)n(C3CCCC3)c2n1` [Example 3] it was 0.23 µM. On the same count and under the same terms, the result for `CC[C@@H](C)n1c(=O)c(NCc2ccc(S(N)(=O)=O)cn2)nc2cnc(-c3c(C)nc(N)nc3C3CC3)nc21` [Example 129] reads 2.5 µM. As to `CO[C@H]1CCC[C@@H]1n1c(=O)c(NCc2ccc(S(C)(=O)=O)cc2)nc2cnc(-c3c(C)ncnc3C3CC3)nc21` [Example 229], the IC50 was determined as 0.53 µM. As for `CCS(=O)(=O)N1CCC(CNc2nc3cnc(-c4c(OC)ncnc4C4CC4)nc3n([C@H](C)C3CC3)c2=O)CC1` [Example 76], the IC50 is 1.6 µM. Same read-out and setting: in the case of `CCS(=O)(=O)c1ccc(CNc2nc3cnc(-c4c(C)ncnc4C4CC4)nc3n([C@H](C)C(C)C)c2=O)nc1` [Example 67] it was 0.37 µM.

For `Cc1ncnc(C2CC2)c1-c1ncc2nc(NCc3ccc(S(C)(=N)=O)cc3)c(=O)n([C@@H](C)C3CCC3)c2n1` (stereo partly shown) [Example 232], the IC50 turned out to be 0.18 µM. The same measure, in the same setting: the result for `CCS(=O)(=O)c1ccc(CNc2nc3cnc(-c4cnc(N)nc4C(C)C)nc3n(C(C)C)c2=O)nc1` [Example 140] reads 0.73 µM; that for `COc1cc(C#N)ccc1CNc1nc2cnc(-c3c(C)ncnc3C3CC3)nc2n([C@@H](C)C2CC2)c1=O` [Example 133], 1.03 µM; that for `CCc1nc(N)nc(C2CC2)c1-c1ncc2nc(NCc3ccc(S(=O)(=O)C4CC4)cn3)c(=O)n([C@@H](C)C3CC3)c2n1` [Example 251], 0.158 µM. Same read-out and setting: the result for `CCS(=O)(=O)c1ccc(CNc2nc3cnc(-c4c(C)ncnc4C4CC4)nc3n(CC(C)C)c2=O)nc1` [Example 252] reads 0.325 µM; that for `CCS(=O)(=O)c1sc(CNc2nc3cnc(-c4c(C)ncnc4C4CC4)nc3n([C@@H](C)C3CC3)c2=O)nc1C` [Example 114], 0.107 µM; that for `COC(=O)c1ccc(CNc2nc3cnc(-c4c(C)ncnc4C4CC4)nc3n([C@@H](C)C3CC3)c2=O)cc1` [Example 216], 1.39 µM. On the same count and under the same terms, the result for `Cc1ncnc(C2CC2)c1-c1ncc2nc(NCc3ccc(S(N)(=O)=O)cn3)c(=O)n(CC(C)C)c2n1` [Example 254] reads 0.455 µM.

Take `CNS(=O)(=O)c1ccc(CNc2nc3cnc(-c4c(OC)ncnc4C4CC4)nc3n(C3CCC3)c2=O)nc1` [Example 239]: the IC50 turned out to be 0.205 µM.

Take `CC[C@@H](C)n1c(=O)c(NCc2ncc(S(=O)(=O)CC)cn2)nc2cnc(-c3c(OC)ncnc3C3CC3)nc21` [Example 184]: the IC50 worked out at 0.295 µM. The same measure, in the same setting: the result for `CCS(=O)(=O)c1ccc(CNc2nc3cnc(-c4c(OC)ncnc4C4CC4)nc3n([C@H]3CCC[C@H]3C#N)c2=O)nc1` [Example 108] reads 0.3 µM; that for `CCS(=O)(=O)c1ccc(CNc2nc3cnc(-c4c(C)ncnc4C(C)C)nc3n(C(C)C)c2=O)nc1` [Example 178], 0.24 µM; that for `CCS(=O)(=O)N[C@H]1C[C@H](CNc2nc3cnc(-c4c(C)ncnc4C4CC4)nc3n([C@@H](C)C3CC3)c2=O)C1` [Example 202], 0.455 µM. Still for that read-out and setting: in the case of `CS(=O)(=O)c1ccc(CNc2nc3cnc(-c4c(C5CC5)ncnc4C4CC4)nc3n(C3CC3)c2=O)cc1` [Example 46] it was 3 µM. The same measure, in the same setting: in the case of `CCS(=O)(=O)N1CC[C@@H](CNc2nc3cnc(-c4c(C)ncnc4C4CC4)nc3n([C@@H](C)C3CC3)c2=O)C1` [Example 211] it was 0.225 µM; in that of `CCS(=O)(=O)c1ccc(CNc2nc3cnc(-c4c(C)ncnc4C4CC4)nc3n([C@@H](C)C(C)C)c2=O)nc1` [Example 66], 0.41 µM; in that of `Cc1ncnc(C2CC2)c1-c1ncc2nc(NCc3ccc(C(=O)O)cc3)c(=O)n([C@@H](C)C3CC3)c2n1` [Example 200], 0.855 µM. `CCS(=O)(=O)N1CC2(CC(CNc3nc4cnc(-c5c(OC)ncnc5C5CC5)nc4n([C@@H](C)C4CC4)c3=O)C2)C1` [Example 152]: the IC50 came out at 0.47 µM.

Turning to `CCCc1ncnc(C)c1-c1ncc2nc(NCc3ccc(S(=O)(=O)CC)cn3)c(=O)n(C(C)C)c2n1` [Example 172], the IC50 amounted to 0.44 µM. Same read-out and setting: in the case of `CCS(=O)(=O)c1ccc(CNc2nc3cnc(-c4c(C)ncnc4C4CC4)nc3n([C@H]3CCC[C@@H]3C#N)c2=O)nc1` [Example 112] it was 0.92 µM; in that of `CCS(=O)(=O)c1ccc(CNc2nc3cnc(-c4c(OC)ncnc4C4CC4)nc3n(CC(C)C)c2=O)cn1` [Example 154], 0.295 µM. As to `CCS(=O)(=O)c1ccc(CNc2nc3cnc(-c4c(C5CC5)ncnc4C4CC4)nc3n([C@@H](C)C(C)C)c2=O)nc1` [Example 7], the IC50 was found to be 0.28 µM. On the same count and under the same terms, the result for `CCc1ncnc(C2CC2)c1-c1ncc2nc(NCc3ccc(S(C)(=N)=O)cc3)c(=O)n([C@@H](C)C3CC3)c2n1` (stereo partly shown) [Example 210] reads 0.15 µM.

As to `COc1ncnc(C2CC2)c1-c1ncc2nc(NCc3ccc(S(N)(=O)=O)cn3)c(=O)n(CC3CCC3)c2n1` [Example 116], the IC50 amounted to 0.3 µM. On the same count and under the same terms, the result for `CCS(=O)(=O)c1ccc(CNc2nc3cnc(-c4c(OC)ncnc4C4CC4)nc3n(C3(C#N)CC3)c2=O)nc1` [Example 50] reads 4.4 µM. On the same count and under the same terms, the result for `COc1ncnc(C2CC2)c1-c1ncc2nc(NCc3ccc(S(C)(=O)=O)cn3)c(=O)n(C3CCC3)c2n1` [Example 241] reads 0.31 µM; that for `COc1ncnc(C2CC2)c1-c1ncc2nc(NCc3ccc(S(N)(=O)=O)cn3)c(=O)n(CC(C)C)c2n1` [Example 255], 0.285 µM. The same measure, in the same setting: the result for `COc1ncnc(C2CC2)c1-c1ncc2nc(NCc3ccc(S(C)(=O)=O)cc3)c(=O)n([C@H]3CCC[C@@H]3OC)c2n1` [Example 230] reads 0.27 µM; that for `COc1ncnc(C2CC2)c1-c1ncc2nc(NCc3ccc(S(N)(=O)=O)cc3)c(=O)n(C(C)C)c2n1` [Example 151], 0.255 µM. As to `COc1ncnc(C2CC2)c1-c1ncc2nc(NCc3ccc(S(C)(=O)=O)cn3)c(=O)n([C@@H](C)C(F)(F)F)c2n1` [Example 181], the IC50 is 0.175 µM. Same read-out and setting: in the case of `CC[C@H](C)n1c(=O)c(NCc2ccc(S(=O)(=O)CC)cn2)nc2cnc(-c3c(C)ncnc3C3CC3)nc21` [Example 20] it was 0.33 µM; in that of `CC[C@@H](C)n1c(=O)c(NCc2ncc(S(=O)(=O)CC)cn2)nc2cnc(-c3c(C4CC4)ncnc3C3CC3)nc21` [Example 186], 0.15 µM.

As to `Cc1ncnc(C2CC2)c1-c1ncc2nc(NCc3ccc(S(C)(=O)=O)cn3)c(=O)n(CC3CC3)c2n1` [Example 247], the IC50 was found to be 0.385 µM.

As for `CCS(=O)(=O)c1ccc(CNc2nc3cnc(-c4c(OC)ncnc4C4CC4)nc3n(C3CCCC3=O)c2=O)nc1` (stereo not shown) [Example 120], the IC50 was determined as 0.42 µM. Still for that read-out and setting: the result for `CC[C@@H](C)n1c(=O)c(NCc2ccc(S(=O)(=O)CC)nc2)nc2cnc(-c3c(C4CC4)ncnc3C3CC3)nc21` [Example 224] reads 0.12 µM. On the same count and under the same terms, the result for `CCS(=O)(=O)c1ccc(CNc2nc3cnc(-c4c(C)nc(N)nc4C4CC4)nc3n([C@H](C)C3CCC3)c2=O)nc1` [Example 233] reads 0.155 µM.
